How the values were obtained:
[1] = test system: Chlamydomonas reinhardtii; experiment: Dark- and photo-toxic activity of free C12 on breeding site biota; assay type: in vivo; details: vegetative cells; 1 h incubation; visible light 10 mW/cm^2
Method: (§1) The dark- and photo-toxic activity of free C12 (wherein C12 means porphyrin C12) was tested on representative components of mosquito's breeding sites biota, the results are shown in table 6, as minimal photosensitizing dose (μM). […] Sensitivity to phototreatment (visible light, 10 mW/cm^2) was obviously different, as C. inflate trophozoites and even cysts were highly photosensitive, while Artemia franciscana nauplii appeared to be highly resistant.

Artemia franciscana [2] = experiment: as above; assay type: in vivo; details: nauplii; 1 h incubation; visible light 10 mW/cm^2
Method: as §1

Daphnia magna [3] = experiment: as above; assay type: in vivo; details: young individuals; 1 h incubation; visible light 10 mW/cm^2
Method: as §1

An. gambiae (M) = experiment: Laboratory-scale tray larvicide test; assay type: in vivo; details: sun
Method: (§2) Laboratory strains of Anopheles stephensi, M and S (Kisumu), chromosomal forms of An. gambiae, An. arabiensis and Aedes aegypti, as well as field-collected Anopheles spp. and Aedes spp. larvae were used. Laboratory mosquitoes were maintained at 28-30° C., >90% RH and a photoperiod of 12 h. Light intensity ranged between 0.5 mW/cm^2 (fluorescent lamp) and 185 mW/cm^2 (sunlight).
(§3) C12 or C14 porphyrin solutions at 5-100 μM concentrations were pre-incubated at room temperature in the darkness with 15-60 mg of carrier (either Eudragit or ground mouse food or cat food) for 4-12 hours under gentle shaking. After incubation the solutions were filtered, and the loaded carrier was dried at room temperature or in an oven (45° C.).
(§4) One litre capacity, transparent plastic trays containing wells with each 500 ml water and 6-60 mg of the composition of the present invention were prepared. Batches of 60-100 L2, L3 or L4 larvae were introduced into the trays after sunset (or artificial light off). Larval mortality was evaluated the next day starting from 8.00 am, and the time required to reach at least 90% mortality was recorded. Larvae not moving or not showing an escaping response at probing were defined as dead or dying, and counted together (Tables 2 and 3). Pupae occasionally formed throughout the irradiation time were discarded and excluded from the evaluation. An equal number of batches of larvae prepared in the same way were kept in continuous darkness and mortality was evaluated similarly, to assess toxicity in the dark.
(§5) Light intensity range: 0.5-185 mW/cm^2.

An. arabiensis = experiment: Laboratory-scale tray larvicide test; assay type: in vivo; details: sun
Method: as §2, §3, §4, §5

An. stephensi = experiment: Laboratory-scale tray larvicide test; assay type: in vivo; details: carrier mouse food; 6 mg per tray; loading concentration 0.64 μM; fluorescent lamp
Method: as §2, §3, §4, §5

[4] = test system: Anopheles gambiae Kisumu strain (S); experiment: Laboratory-scale tray larvicide test; assay type: in vivo; details: sun
Method: as §2, §3, §4, §5

Tetrahymena thermophila = details: in vivo
Method: as §1

[5] = C12 photo-bleaching in water; assay type: physicochemical; details: free porphyrin in water; 1 hour irradiation, visible light 150 mW/cm^2
Method: Moreover, with the aim to determine the level of degradation of the free porphyrin in the water after exposure to sunlight, the rate of C12 photo-bleaching was followed spectrophotometrically by measuring the porphyrin absorption spectrum in the 350-700 nm range upon exposure to visible light at a fluence rate of 150 mW/cm^2. After 1 hour irradiation the porphyrin concentration decreased up to 50%.

Anopheles spp = experiment: Tray larvicide test on field-collected mosquitoes; assay type: in vivo; details: sunlight
Method: as §2, §3, §4
(§6) Each result derives from an independent, representative experiment. Light source: sunlight in all cases, intensity range: 4-185 mW/cm^2

[6] = test system: Anopheles spp + Aedes spp; experiment: Tray larvicide test on field-collected mosquitoes; assay type: in vivo; details: carrier Eudragit; 30 mg per tray; loading concentration 50 μM; sunlight
Method: as §2, §3, §4, §6

Colpoda inflata = experiment: Effect of free porphyrin on non-target organisms of aqueous habitats; assay type: in vivo; details: 1 h irradiation, fluorescent lamp
Method: (§7) The effect of free porphyrin, wherein porphyrin means porphyrin C12, dissolved in water on the photosensitivity of potential aqueous non-target organisms was evaluated on Colpoda inflata, Artemia franciscana and Daphnia magna, a protozoan and two crustacean organisms frequently found in aqueous environments. The mortality data were recorded after 1 h irradiation with visible light emitted by a fluorescent lamp.

Artemia franciscana [7] = experiment: as above; assay type: in vivo; details: 1 h irradiation, fluorescent lamp
Method: as §7

Daphnia magna [8] = experiment: as above; assay type: in vivo; details: 1 h irradiation, fluorescent lamp
Method: as §7

Culex sp. = details: cited from earlier work
[9] = carrier Eudragit, 15 mg per tray, loading concentration 25 μM
[10] = carrier cat food, 30 mg per tray, loading concentration 50 μM
[11] = carrier Eudragit, 30 mg per tray, loading concentration 50 μM
[12] = carrier Eudragit, 30 mg per tray, loading concentration 25 μM

## CCCCCCCCCCCC[n+]1ccc(-c2c3nc(c(-c4cc[n+](C)cc4)c4ccc([nH]4)c(-c4cc[n+](C)cc4)c4nc(c(-c5cc[n+](C)cc5)c5ccc2[nH]5)C=C4)C=C3)cc1 [C12, meso-tri(N-methyl-pyridyl), mono(N-dodecyl-pyridyl)porphine]
[1]
  minimal photosensitizing dose: 0.2 µM
Artemia franciscana [2]
  minimal photosensitizing dose: >10.0 µM
Daphnia magna [3]
  minimal photosensitizing dose: 0.3 µM
An. gambiae (M); [9]
  Time to reach ≧90% mortality: 0.5 h
An. gambiae (M); [10]
  Time to reach ≧90% mortality: 3 h
An. arabiensis; carrier Eudragit, 15 mg per tray, loading concentration 5 μM
  Time to reach ≧90% mortality: 3 h
An. arabiensis; [11]
  Time to reach ≧90% mortality: 0.5 h
An. arabiensis; [10]
  Time to reach ≧90% mortality: 3 h
An. stephensi
  Time to reach ≧90% mortality: 6 h
[4]; [9]
  Time to reach ≧90% mortality: 0.5 h
[4]; carrier Eudragit, 15 mg per tray, loading concentration 50 μM
  Time to reach ≧90% mortality: 0.5 h
[4]; [12]
  Time to reach ≧90% mortality: 0.5 h
[4]; [11]
  Time to reach ≧90% mortality: 0.5 h
[4]; carrier Eudragit, 60 mg per tray, loading concentration 50 μM
  Time to reach ≧90% mortality: 0.5 h
[4]; carrier cat food, 30 mg per tray, loading concentration 25 μM
  Time to reach ≧90% mortality: 8 h
[4]; [10]
  Time to reach ≧90% mortality: 0.5 h
[4]; carrier cat food, 30 mg per tray, loading concentration 100 μM
  Time to reach ≧90% mortality: 0.5 h
[4]; carrier cat food, 60 mg per tray, loading concentration 100 μM
  Time to reach ≧90% mortality: 0.5 h
Tetrahymena thermophila
  minimal photosensitizing dose: 3.0 µM
[5]
  decrease of porphyrin concentration (photo-bleaching): up to 50%
Anopheles spp; carrier Eudragit, 15 mg per tray, loading concentration 15 μM
  Time to reach ≧90% mortality: 3 h
Anopheles spp; [12]
  Time to reach ≧90% mortality: 0.5 h
Anopheles spp; [10]
  Time to reach ≧90% mortality: 3 h
[6]
  Time to reach ≧90% mortality: 0.5 h
Colpoda inflata; cysts
  LD-50: >1.0 µM
Colpoda inflata; cysts, porphyrin dose 1.0 μM
  Mortality (%): 20%
Colpoda inflata; trophozoites
  LD-50: 1.0 µM
Colpoda inflata; trophozoites, porphyrin dose 0.6 μM
  Mortality (%): 40%
Artemia franciscana [7]
  LD-50: >10.0 µM
Artemia franciscana [7]; porphyrin dose 6.0 μM
  Mortality (%): 20%
Daphnia magna [8]
  LD-50: 0.3 µM
Daphnia magna [8]; porphyrin dose 0.3 μM
  Mortality (%): 50%

## CC1=C(CCC(=O)O)c2cc3[nH]c(cc4nc(cc5[nH]c(cc1n2)c(C)c5C(C)O)C(C)=C4C(C)O)c(C)c3CCC(=O)O (stereo not shown) [hematoporphyrin]
Culex sp.; semi-field, 10^−5 M, after 3 days under natural sunlight
  mortality: 100%

## chlorophyllin
Culex sp.; laboratory, added to larval breeding water, after 3 h exposure to light intensity 146.66 W/m^2
  LD50: 6.88 g/L

— US20130296370A1, “COMPOSITION COMPRISING A PHOTOACTIVATABLE LARVICIDE” (UNIVERSITA DEGLI STUDI DI PADOVA, priority 2010, published 2013)
